# Patent US20110263696A1, “PROANTHOCYANIDINS FROM CINNAMON AND ITS WATER SOLUBLE EXTRACT INHIBIT TAU AGGREGATION” (priority 2007, published 2011)
# What was measured:
# Type in all cases: biochemical
# tau fragment (tau 187) = biological target: T1, tau fragment (tau 187) (Homo sapiens, UniProt P10636); assay: Thioflavin T fluorescence assay of tau aggregation
# T1 construct: his; made in house; host or cells: bacteria
# Protocol: In one illustrative embodiment of the invention, the effects of cinnamon proanthocyanidin or its extract can be determined by fluorescence measurements in the presence of a thioflavin derivative. If aggregation proceeds through formation of an ordered structure, enhancement of thioflavin occurs. This method can be used to quantify the effects of the proanthocyanidins on the rate and extent of tau aggregation.
# An alternative method is to incubate tau in the absence of thioflavin under conditions that cause aggregation in the absence and presence of cinnamon proanthocyanidin. At different times aliquots are removed to measure the aggregation by examining the fluorescence of thioflavin T added to these aliquots. As thioflavin can affect aggregation itself and could compete partly with binding of proanthocyanidin this modified assay could maximize the effect of proanthocyanidin. Because it would necessitate removing aliquots from the reaction at different times and mixing in new reagents, it is less convenient and prone to additional errors.
# This conclusion was reached by measuring changes in fluorescence of thioflavin T under conditions well documented to cause formation of tau aggregates.
# tau187 [1] = biological target: T2, tau187 (Homo sapiens, UniProt P10636); assay: Turbidity (OD350) assay of heparin-induced aggregation, tau187; details: trimer 12.5 uM as pure trimer or as whole extract (0.22 mg/mL CE); OD 350 (FIG. 17)
# T2 construct: his; made in house; host or cells: bacteria
# Protocol: FIG. 15A. […] 50 μM Tau^187 was incubated with 0.11 mg/ml heparin (18 kDa) at 23° C. Aggregation was monitored by turbidity (OD350). Cinnamaldehyde was present at a final concentration of 0, 50 and 100 μM. FIG. 15B. Electron microscopy of tau fibers in the presence of cinnamaldehyde (CA). Tau fibers were visualized by electron microscopy after 5 hrs of aggregation in the presence of: 0 CA (left panel); B) 100 uM CA (right panel). […] FIG. 15 C. Trans-cinnamaldehyde chemical structure. FIG. 16A. […] 50 uM tau187 was incubated with 0.11 mg/mL heparin (18 kDa) at 23° C. Epicatechin was untreated, treated with 10 mM NH4OH for 10 min at 95° C. then neutralized, or treated with 100 U of mushroom tyrosinase (Sigma) for 10 min. Epicatechin was added to the reaction at a final concentration of 25 uM. Fiber formation was monitored by OD 350. FIG. 16B. epicatechin and catechin chemical structures. FIG. 17A. HPLC analysis of proanthocyanidin A-type trimer, A) purified or B) in whole cinnamon extract. The trimer corresponds to the major peak at ˜40 min. Areas underneath the peaks in panels A and B each correspond to 6150 pmoles. […] Fiber formation was monitored by OD 350. Concentrations of A-trimer in pure form and in whole cinnamon extract (CE) were normalized by absorbance measurements of the A-trimer resolved by HPLC. […]
# tau187 [2] = biological target: T2, tau187; assay: Electron microscopy of tau187 fibers; details: tau187 50 uM, heparin 0.1 mg/ml; trimer 200 uM (FIG. 6)
# Protocol: FIG. 6. […] Aggregation of tau^187 (50 uM) was initiated with heparin (0.1 mg/ml) in 20 mM NaPO4, pH 7.0. in the presence of: no proanthocyanidin (left panel), or 200 uM purified A-type trimer (right panel). Scale: Bars=500 nm
# FIG. 13. Effect of oxidized cinnamon on tau filament formation. […] Left panel: no cinnamon; right panel 10 μM oxidized cinnamon.
# FIG. 15A. […] 50 μM Tau^187 was incubated with 0.11 mg/ml heparin (18 kDa) at 23° C. Aggregation was monitored by turbidity (OD350). Cinnamaldehyde was present at a final concentration of 0, 50 and 100 μM. FIG. 15B. Electron microscopy of tau fibers in the presence of cinnamaldehyde (CA). Tau fibers were visualized by electron microscopy after 5 hrs of aggregation in the presence of: 0 CA (left panel); B) 100 uM CA (right panel). […] FIG. 15 C. Trans-cinnamaldehyde chemical structure.
# Two hexapeptide motifs in tau are critical for tau aggregation and fiber formation (see, e.g. von Bergen et al., Proc Nad Acad Sci USA 97, 5129-34 (2000)). These motifs lie in the first and second inter-repeat regions of the MT binding domain (FIG. 5), and it is known that engineered truncation fragments of tau that contain these motifs often undergo aggregation into fibers even more efficiently than the full-length molecule (see, e.g. Barghorn et al., Biochemistry 41, 14885-96 (2002)). […]
# T2 sequence (P10636 572-758 limits assumed): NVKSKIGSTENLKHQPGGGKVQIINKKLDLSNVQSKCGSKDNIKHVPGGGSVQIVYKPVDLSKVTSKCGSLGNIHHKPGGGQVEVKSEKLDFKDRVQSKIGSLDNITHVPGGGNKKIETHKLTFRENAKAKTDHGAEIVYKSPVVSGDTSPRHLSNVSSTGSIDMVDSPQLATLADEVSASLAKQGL
# T1 sequence (P10636 572-758 limits assumed): as above
substance,measurement,setting,value
A-linked proanthocyanidin trimer [A-type trimer],Inhibition of tau 187 aggregation by thioflavin T fluorescence,tau fragment (tau 187),reduces aggregation of tau
same,"Inhibition of tau187 aggregation, whole extract vs pure trimer at equal trimer content",tau187 [1],inhibits tau polypeptide aggregation
same,Inhibition of tau187 aggregation by EM,tau187 [2],effectively inhibited
